In brackets after ≈: the same amount, converted by molar mass. Values belong to the molecule of their own block, whether it stands above or below them.
How the values were obtained:
[1] = Solubility of the compound at pH 6.8; format: physicochemical; details: buffer
[2] = AUC in Sprague-Dawley rat at 10 mg/kg, po by HLPC-MS analysis; format: ADME, organism-based; details: in vivo
[3] = Lipophilicity, log D of the compound at pH 7.4; format: physicochemical; details: buffer
[4] = AUC (0 to 12 hrs) in nude mouse xenografted with human HMEX2838 cells at 100 mg/kg, po bid administered via gavage by LC-MS/MS analysis; format: ADME, organism-based; parameters: time < 12 hr, dose 100 mg/kg, route oral; details: in vivo
[5] = AUC (0 to 12 hrs) in nude mouse xenografted with human HMEX2838 cells at 300 mg/kg, po bid administered via gavage by LC-MS/MS analysis; format: ADME, organism-based; parameters: time < 12 hr, dose 300 mg/kg, route oral; details: in vivo
[6] = Ratio of drug level in brain to plasma in Sprague-Dawley rat at 5 mg/kg, iv by HPLC-MS analysis; format: ADME, organism-based; details: brain and plasma, read-out: BPR
[7] = AUC in Sprague-Dawley rat brain at 5 mg/kg, iv by HPLC-MS analysis; format: ADME, organism-based
[8] = AUC (0 to 24 hrs) in nude mouse xenografted with human HMEX2838 cells at 300 mg/kg, po administered via gavage as single dose by LC-MS/MS analysis; format: ADME, organism-based; parameters: dose 300 mg/kg, time < 24 hr, route oral; details: in vivo
in vivo [9] = details: Sprague-Dawley, rat, brain and plasma, iv, 5 mg/kg
Mus musculus [10] = assay: Unbound Cmax in HSD athymic nude mouse xenografted with human HCHZ2H1 cells at 200 mg/kg, po administered as single dose by LC-MS/MS analysis; format: ADME, organism-based; details: in vivo
Mus musculus [11] = assay: Unbound AUC (0 to 48 hrs) in HSD athymic nude mouse xenografted with human HCHZ2H1 cells at 200 mg/kg, po administered as single dose by LC-MS/MS analysis; format: ADME, organism-based; details: in vivo
[12] = AUC in Sprague-Dawley rat plasma at 5 mg/kg, iv by HPLC-MS analysis; format: ADME, organism-based
in vivo [13] = details: C57BL/6, mouse, brain and plasma, po, 30 mg/kg
[14] = Fraction absorbed of compound by PAMPA; format: ADME; details: read-out: Fabs
[15] = AUC (0 to 8 hrs) in nude mouse xenografted with human HMEX2838 cells at 30 mg/kg, po administered via gavage as single dose by LC-MS/MS analysis; format: ADME, organism-based; parameters: dose 30 mg/kg, time < 8 hr, route oral; details: in vivo
Mus musculus [16] = assay: Time at which unbound plasma concentration stays above cellular IDH1 R132H mutant inhibitory IC50 in HSD athymic nude mouse xenografted with human HCHZ2H1 cells; format: ADME, organism-based; details: in vivo
[17] = AUC (0 to 8 hrs) in nude mouse xenografted with human HMEX2838 cells at 100 mg/kg, po administered via gavage as single dose by LC-MS/MS analysis; format: ADME, organism-based; parameters: time < 8 hr, dose 100 mg/kg, route oral; details: in vivo
[18] = AUC (0 to 12 hrs) in nude mouse xenografted with human HMEX2838 cells at 30 mg/kg, po bid administered via gavage by LC-MS/MS analysis; format: ADME, organism-based; parameters: time < 12 hr, dose 30 mg/kg, route oral; details: in vivo
[19] = Cmax in HSD athymic nude mouse xenografted with human HCHZ2H1 cells at 200 mg/kg, po administered as single dose by LC-MS/MS analysis; format: ADME, organism-based; parameters: dose 200 mg/kg, route oral; details: in vivo
[20] = AUC (0 to 48 hrs) in HSD athymic nude mouse xenografted with human HCHZ2H1 cells at 200 mg/kg, po administered as single dose by LC-MS/MS analysis; format: ADME, organism-based; parameters: dose 200 mg/kg, time < 48 hr, route oral; details: in vivo
[21] = Ratio of drug level in brain to plasma in C57BL/6 mouse at 30 mg/kg, po measured at 1 hr by HPLC-MS analysis; format: ADME, organism-based; details: brain and plasma, read-out: BPR

Structure (SMILES): Cc1cc(-c2cnc([C@H](C)Nc3nccc(N4C(=O)OC[C@@H]4C(C)C)n3)cn2)ccc1F
- solubility [1]: < 5 µM

Structure (SMILES): Cc1cc([C@H](C)Nc2nccc(N3C(=O)OC[C@@H]3[C@H](C)F)n2)ncc1-c1ccnc(C(F)(F)F)c1
- AUC at 12 h [4]: 19.2 µM·h
- AUC at 12 h [5]: 88.9 µM·h
- Kp [6]: 0.61
- AUC [7]: 3.4 µM·h
- AUC(0-t) at 24 h [8]: 212 µM·h
- Kp uu (in vivo [9]): 0.18
- AUC [2]: 6.2 µM·h
- fCmax (Mus musculus [10]): 1.88 µM
- fAUC (Mus musculus [11]): 17.3 µM·h
- AUC [12]: 5.5 µM·h
- Kp uu at 1 h (in vivo [13]): 0.17
- logD [3]: 2.8
- Fa [14]: 99.3%
- AUC(0-t) at 8 h [15]: 10.1 µM·h
- Time (Mus musculus [16]): > 12 h
- AUC(0-t) at 8 h [17]: 71.9 µM·h
- AUC at 12 h [18]: 5.4 µM·h
- Cmax [19]: 16.2 µM
- AUC(0-t) at 48 h [20]: 149 µM·h
- solubility [1]: 130 µM (≈ 63.8 µg/mL)
- Kp at 1 h [21]: 0.29

The remaining lines, values ahead:

- solubility [1]: 430 µM (≈ 180 µg/mL)
Structure (SMILES): Cc1cc(-c2ccc([C@H](C)Nc3nccc(N4C(=O)OC[C@@H]4C(C)C)n3)nc2)ccn1

- AUC [2]: 0.2 µM·h
- logD [3]: 3.4
Structure (SMILES): Cc1cc(-c2cnc([C@H](C)Nc3nccc(N4C(=O)OC[C@@H]4C(C)C)n3)nc2)ccc1F

- AUC [2]: 1.6 µM·h
Structure (SMILES): CC(C)[C@H]1COC(=O)N1c1ccnc(N[C@@H](C)c2ccc(-c3ccnc(C(F)(F)F)c3)cn2)n1

— ChEMBL document CHEMBL4130531 (ACS Med Chem Lett, 2017)
